In brackets after ≈: the same amount, converted by molar mass.
Assays:
[1] = system: herpes simplex virus 1 (HSV-1); assay: Plaque reduction assay; assay type: cell-based; conditions: Human alphaherpesvirus 1
ADV7 = conditions: cited from earlier work

IC50 [1] [µg/mL] | Compound | EC50 (ADV7) [µg/mL]
0.07 (≈ 0.311 µM) | Nc1nc2c(ncn2COCCO)c(=O)[nH]1 [acyclovir] | 
 | NC(=O)c1ncn([C@@H]2O[C@H](CO)[C@@H](O)[C@H]2O)n1 [ribavirin] | 27.8 (≈ 114 µM)
